Experimental data from ChEMBL document CHEMBL1137931, “Anti-AIDS agents. Part 58: synthesis and anti-HIV activity of 1-thia-di-O-(-)-camphanoyl-(+)-cis-khellactone (1-thia-DCK) analogues” (Bioorg Med Chem Lett, 2004).

Assays:
[1] = test system: H9; test: Concentration required to inhibit HIV-1 replication by 50% in acutely infected H9 lymphocytes; NA means not active; format: functional, cell-based, Homo sapiens
[2] = test system: H9; test: Concentration required to inhibit uninfected H9 cell growth by 50%; format: functional, cell-based; details: Homo sapiens
[3] = Therapeutic index expressed as IC50/EC50; details: read-out: TI
[4] = test system: H9; test: Concentration required to inhibit HIV-1 replication by 50% in acutely infected H9 lymphocytes; format: functional, cell-based; details: Homo sapiens

| EC50 [1] | EC50 [4] [µM] | SMILES | IC50 [2] [µM] | selectivity ratio [3] |
| --- | --- | --- | --- | --- |
| Not Active |  | Cc1cc(=O)sc2c3c(ccc12)OC(C)(C)[C@H](O)[C@@H]3O | 302 |  |
|  |  | Cc1cc(=O)sc2c3c(ccc12)OC[C@H](OC(=O)C12CCC(C)(C(=O)O1)C2(C)C)[C@@H]3OC(=O)C12CCC(C)(C(=O)O1)C2(C)C (stereo not given in full) | 194 | 62.3 |
| Not Active |  | Cc1cc(=O)sc2c3c(ccc12)OC(C)(C)C=C3 | 339 |  |
|  |  | Cc1cc(=O)sc2c3c(ccc12)OC[C@H](O)[C@@H]3O | 340 | 11.1 |
|  | 0.000256 | CC1(C)Oc2ccc3ccc(=O)oc3c2[C@@H](OC(=O)C23CCC(C)(C(=O)O2)C3(C)C)[C@H]1OC(=O)C12CCC(C)(C(=O)O1)C2(C)C (stereo not given in full) |  | 137000 |
|  |  | Cc1cc(=O)sc2c3c(ccc12)OCC=C3 | 478 | 62.3 |
|  | 120 | Cc1cc(=O)sc2c3c(ccc12)OC(C)(C)[C@H](OC(=O)C12CCC(C)(C(=O)O1)C2(C)C)[C@@H]3OC(=O)C12CCC(C)(C(=O)O1)C2(C)C (stereo not given in full) | 169 |  |
|  | 0.045 | Cc1cn([C@H]2C[C@H](N=[N+]=[N-])[C@@H](CO)O2)c(=O)[nH]c1=O [ZIDOVUDINE] |  |  |
